Like-named read-outs stand apart in the source and are kept apart here.
Key:
Assay type in all cases: biochemical
[1] = target: T1, PDE9A2 (Homo sapiens, UniProt O76083); experiment: Phosphodiesterase enzyme screening assay, PDE9A2
T1 construct: purchased Reaction Biology Corporation, Malvern, Pa
Method in brief: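 Recombinant enzymes were run in 100 mM HEPES pH 7.5, 5 mM MgCl2, 1 mM DTT, 0.003% Brij with 4.0 μM cGMP substrate, started with cGMP or cAMP, 1 h at RT, and stopped with EDTA. Fluorescent substrate and product were separated by microfluidic mobility shift.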

[2] = target: T2, PDE1A (Homo sapiens, UniProt P54750); experiment: Phosphodiesterase enzyme screening assay, PDE1A
T2 construct: purchased Reaction Biology Corporation, Malvern, Pa
T2 sequence (P54750 whole entry): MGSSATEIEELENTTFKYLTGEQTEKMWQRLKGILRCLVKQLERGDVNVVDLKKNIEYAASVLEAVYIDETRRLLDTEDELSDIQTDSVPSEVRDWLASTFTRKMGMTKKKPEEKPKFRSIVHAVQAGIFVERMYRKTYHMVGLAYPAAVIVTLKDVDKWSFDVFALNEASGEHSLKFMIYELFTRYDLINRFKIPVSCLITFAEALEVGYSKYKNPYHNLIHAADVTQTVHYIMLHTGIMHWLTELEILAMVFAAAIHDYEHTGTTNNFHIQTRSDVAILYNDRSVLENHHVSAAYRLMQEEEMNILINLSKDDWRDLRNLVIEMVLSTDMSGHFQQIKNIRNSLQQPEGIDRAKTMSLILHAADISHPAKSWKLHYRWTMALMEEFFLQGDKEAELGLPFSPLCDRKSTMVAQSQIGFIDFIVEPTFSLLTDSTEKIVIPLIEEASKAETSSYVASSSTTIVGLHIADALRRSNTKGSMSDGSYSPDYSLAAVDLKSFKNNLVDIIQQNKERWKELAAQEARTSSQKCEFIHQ
Description: (§1) Compounds of the invention were screened against PDE1A, PDE1B, PDE2A, PDE3A, PDE3B, PDE4A1A, PDE4B1, PDE4D3, PDE5A1, PDE6C, PDE7A, PDE8A1, PDE9A2, PDE10A2 AND PDE11A isoforms of the phosphodiesterase enzyme to determine activity and overall selectivity through comparative analysis. […] Where 8-methoxy-IBMX and Zaprinast were used as reference inhibitors.
(§2) The phosphodiesterase enzyme isoforms were obtained from a commercial retailer (Reaction Biology Corporation, Malvern, Pa.) for use in the instant screening assay.
(§3) The analysis was completed using the Caliper LabChip 3000 and a 12-sipper LabChip. LabChip assays are separations-based, meaning that the product and substrate are electrophoretically separated, thereby minimizing interferences and yielding the highest data quality available on any screening platform. […] High Z′ values, few false positives, few false negatives and analytical quality reproducibility are the reasons cited for the increasing reliance on the LabChip assays.
(§4) The off-chip incubation mobility-shift phosphodiesterase assay uses a microfluidic chip to measure the conversion of a fluorescent cyclic AMP substrate to a 5′-AMP product, or a cyclic GMP substrate to a 5′-GMP product. The reaction mixture, from a microtiter plate well, is introduced through a capillary sipper onto the chip, where the fluorescent substrate and product are separated by electrophoresis and detected via laser-induced fluorescence. […] The precision of microfluidics allows researchers to detect subtle interactions between drug candidates and therapeutic targets.
(§5) Reactions were carried out in 100 mM HEPES (pH 7.5), 5 mM MgCl2, 1 mM DTT, 0.003% Brij, 4.0 μM cGMP substrate. The reaction was started by addition of cGMP or cAMP and incubated for 1 hour at R.T. The reaction was terminated by the addition of stop buffer containing 100 mM HEPES (pH 7.5), 15 mM EDTA, 0.015% Brij-35, 5% DMSO. Cyclic AMP/GMP substrate and 5′-AMP/5′-GMP product were separated by charge using electrophoretic mobility shift. Product formed was compared to control wells to determine inhibition or enhancement of enzyme activity.
(§6) Data points were averages of quadruplicate wells and error bars represented the SEM for each point.

[3] = target: T3, PDE1B (Homo sapiens, UniProt Q01064); experiment: Phosphodiesterase enzyme screening assay, PDE1B
T3 construct: purchased Reaction Biology Corporation, Malvern, Pa
T3 sequence (Q01064 whole entry): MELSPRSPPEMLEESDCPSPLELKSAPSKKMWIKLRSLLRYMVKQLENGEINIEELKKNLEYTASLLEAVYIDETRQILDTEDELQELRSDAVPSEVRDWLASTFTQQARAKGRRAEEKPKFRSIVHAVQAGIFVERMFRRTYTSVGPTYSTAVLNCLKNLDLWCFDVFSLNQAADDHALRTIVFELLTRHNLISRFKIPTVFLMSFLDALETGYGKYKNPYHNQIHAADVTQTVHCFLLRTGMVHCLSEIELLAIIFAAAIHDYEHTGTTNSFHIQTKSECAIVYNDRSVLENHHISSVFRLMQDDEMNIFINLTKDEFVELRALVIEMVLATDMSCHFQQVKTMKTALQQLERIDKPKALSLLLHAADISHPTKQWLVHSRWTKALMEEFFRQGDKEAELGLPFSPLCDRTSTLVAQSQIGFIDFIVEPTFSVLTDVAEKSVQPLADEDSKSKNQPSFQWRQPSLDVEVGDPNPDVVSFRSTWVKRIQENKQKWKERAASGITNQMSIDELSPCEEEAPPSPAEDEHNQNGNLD
Description: as §1, §2, §3, §4, §5, §6

[4] = Table 1, 10 concentrations, 4.0 μM cGMP substrate, 1 hour at R.T., read-out: Band (PDE9A2 IC50)
[5] = Table 1, ratio of IC50 values, value greater than 1 indicates greater selectivity for PDE9A2
[6] = Table 2, ratio of IC50 values, value greater than 1 indicates greater selectivity for PDE9A2

T1 sequence (O76083 1-533 isoform O76083-2): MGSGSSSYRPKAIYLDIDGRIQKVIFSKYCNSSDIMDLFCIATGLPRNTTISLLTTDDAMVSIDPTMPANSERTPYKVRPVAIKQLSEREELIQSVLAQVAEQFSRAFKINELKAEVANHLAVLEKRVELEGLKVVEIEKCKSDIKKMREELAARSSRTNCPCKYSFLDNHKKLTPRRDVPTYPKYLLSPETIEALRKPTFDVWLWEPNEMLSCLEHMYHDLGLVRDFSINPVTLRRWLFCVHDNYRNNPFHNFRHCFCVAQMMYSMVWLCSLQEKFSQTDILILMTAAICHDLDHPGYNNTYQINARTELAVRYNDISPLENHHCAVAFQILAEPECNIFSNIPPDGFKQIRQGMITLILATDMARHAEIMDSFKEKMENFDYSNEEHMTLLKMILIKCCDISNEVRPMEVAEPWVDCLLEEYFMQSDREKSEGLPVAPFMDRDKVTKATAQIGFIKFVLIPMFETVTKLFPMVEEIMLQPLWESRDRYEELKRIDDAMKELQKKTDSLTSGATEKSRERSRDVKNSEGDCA

PDE1A selectivity (versus PDE9A2) [2, 5]	PDE1B selectivity (versus PDE9A2) [3, 5]	also measured	SMILES
1687	1097	IC50 [1, 4]: < 1 µM	CC1CN(Cc2ccc(F)c(C(F)(F)F)c2)CC1c1nn2c(C3CCOCC3)ncc2c(=O)[nH]1 (single isomer, unassigned; (+)) [(+)-2-((3,4-trans)-1-(4-fluoro-3-(trifluoromethyl)benzyl)-4-methylpyrrolidin-3-yl)-7-(tetrahydro-2H-pyran-4-yl)imidazo[5,1-f][1,2,4]triazin-4(3H)-one]
80	60	IC50 [1, 4]: < 1 µM	Cc1ncc(CN2CC(C)C(c3nn4c(C5CCOCC5)ncc4c(=O)[nH]3)C2)cn1 (single isomer, unassigned; (+)) [(+)-2-((3,4-trans)-4-methyl-1-((2-methylpyrimidin-5-yl)methyl)pyrrolidin-3-yl)-7-(tetrahydro-2H-pyran-4-yl)imidazo[5,1-f][1,2,4]triazin-4(3H)-one]
–	–	IC50 ([1]; Table 3, 4.0 μM cGMP substrate, 1 hour at R.T., read-out: Band (PDE9A2 IC50)): < 1 µM; PDE1A selectivity (versus PDE9A2) ([2]; ratio of IC50 values, PDE1A versus PDE9A2, value greater than 1 = greater selectivity for PDE9A2): 39; PDE1B selectivity (versus PDE9A2) ([3]; ratio of IC50 values, PDE1B versus PDE9A2, value greater than 1 = greater selectivity for PDE9A2): 76	CC1CN(Cc2ccc3cccc(F)c3n2)CC1c1nn2c(C3CCOCC3)ncc2c(=O)[nH]1 (single isomer, unassigned; (+)) [(+)-2-((3,4-trans)-1-((8-fluoroquinolin-2-yl)methyl)-4-methylpyrrolidin-3-yl)-7-(tetrahydro-2H-pyran-4-yl)imidazo[5,1-f][1,2,4]triazin-4(3H)-one]
–	–	IC50 ([1]; Table 2, 10 concentrations, 4.0 μM cGMP substrate, 1 hour at R.T., read-out: Band (PDE9A2 IC50)): < 1 µM; PDE1A selectivity (versus PDE9A2) [2, 6]: 71; PDE1B selectivity (versus PDE9A2) [3, 6]: 89	CC1CN(CCc2cncnc2)CC1c1nn2c(C3CCOCC3)ncc2c(=O)[nH]1 (single isomer, unassigned; (+)) [(+)-2-((3,4-trans)-4-methyl-1-(2-(pyrimidin-5-yl)ethyl)pyrrolidin-3-yl)-7-(tetrahydro-2H-pyran-4-yl)imidazo[5,1-f][1,2,4]triazin-4(3H)-one]
–	–	IC50 ([1]; IC50 band, 4.0 μM cGMP substrate, 1 hour at R.T.): < 1 µM; PDE1A selectivity (versus PDE9A2) ([2]; ratio of IC50 values PDE1A vs PDE9A2, value greater than 1 indicates greater selectivity for PDE9A2): 339; PDE1B selectivity (versus PDE9A2) ([3]; ratio of IC50 values PDE1B vs PDE9A2, value greater than 1 indicates greater selectivity for PDE9A2): 792	Cc1cc(F)ccc1-c1ncc2c(=O)[nH]c(C3CN(Cc4cn5ccccc5n4)CC3C)nn12 (single isomer, unassigned; (+)) [(+)-7-(4-fluoro-2-methylphenyl)-2-((3,4-trans)-1-(imidazo[1,2-a]pyridin-2-ylmethyl)-4-methylpyrrolidin-3-yl)imidazo[5,1-f][1,2,4]triazin-4(3H)-one]
–	–	IC50 ([1]; read-out: Band (PDE9A2 IC50)): < 1 µM; PDE1A selectivity (versus PDE9A2) ([2]; ratio of IC50 values, PDE1A versus PDE9A2, value greater than 1 indicates greater selectivity for PDE9A2): 3; PDE1B selectivity (versus PDE9A2) ([3]; ratio of IC50 values, PDE1B versus PDE9A2, value greater than 1 indicates greater selectivity for PDE9A2): 7	CC1CN(Cc2ccc(F)cc2)CC1c1nn2c(-c3ccccc3)ncc2c(=O)[nH]1 (single isomer, unassigned; (+)) [(+)-2-((3,4-trans)-1-(4-fluorobenzyl)-4-methylpyrrolidin-3-yl)-7-phenylimidazo[5,1-f][1,2,4]triazin-4(3H)-one]
260	605	IC50 [1, 4]: < 1 µM	CC1CN(Cc2ccc(C3CC3)cc2)CC1c1nn2c(C3CCOCC3)ncc2c(=O)[nH]1 (single isomer, unassigned; (+)) [(+)-2-((3,4-trans)-1-(4-cyclopropylbenzyl)-4-methylpyrrolidin-3-yl)-7-(tetrahydro-2H-pyran-4-yl)imidazo[5,1-f][1,2,4]triazin-4(3H)-one]
132	175	–	Cc1cc(F)ccc1-c1ncc2c(=O)[nH]c(C3CN(Cc4ncccn4)CC3C)nn12 (single isomer, unassigned; (-)) [(−)-7-(4-fluoro-2-methylphenyl)-2-((3,4-trans)-4-methyl-1-(pyrimidin-2-ylmethyl)pyrrolidin-3-yl)imidazo[5,1-f][1,2,4]triazin-4(3H)-one]
202	178	–	CC1CN(Cc2cnccn2)CC1c1nn2c(C3CCOCC3)ncc2c(=O)[nH]1 (single isomer, unassigned; (+)) [(+)-2-((3,4-trans)-4-methyl-1-(pyrazin-2-ylmethyl)pyrrolidin-3-yl)-7-(tetrahydro-2H-pyran-4-yl)imidazo[5,1-f][1,2,4]triazin-4(3H)-one]
5	5	–	CC1CN(Cc2ccccc2)CC1c1nn2c(C3CCOCC3)ncc2c(=O)[nH]1 (single isomer, unassigned; (+)) [(+)-2-((3,4-trans)-1-benzyl-4-methylpyrrolidin-3-yl)-7-(tetr] [(+)-2-((3,4-trans)-1-benzyl-4-methylpyrrolidin-3-yl)-7-(tetrahydro-2H-pyran-4-yl)imidazo[1,5-f][1,2,4]triazin-4(3H)-one]
165	313	–	CC1CN(Cc2ncccn2)CC1c1nn2c(C3CCC(F)(F)CC3)ncc2c(=O)[nH]1 (single isomer, unassigned; (+)) [(+)-7-(4,4-difluorocyclohexyl)-2-((3,4-trans)-4-methyl-1-(pyrimidin-2-ylmethyl)pyrrolidin-3-yl)imidazo[5,1-f][1,2,4]triazin-4(3H)-one]
1110	1140	–	CC1CN(Cc2cccc(F)c2)CC1c1nn2c(C3CCOCC3)ncc2c(=O)[nH]1 (single isomer, unassigned; (-)) [(−)-2-((3,4-trans)-1-(3-fluorobenzyl)-4-methylpyrrolidin-3-yl)-7-(tetrahydro-2H-pyran-4-yl)imidazo[5,1-f][1,2,4]triazin-4(3H)-one]
393	386	–	CC1CN(Cc2ncccn2)CC1c1nn2c(C3CCOCC3)ncc2c(=O)[nH]1 (single isomer, unassigned; (+)) [(+)-2-((3,4-trans)-4-methyl-1-(pyrimidin-2-ylmethyl)pyrrolid] [(+)-2-((3,4-trans)-4-methyl-1-(pyrimidin-2-ylmethyl)pyrrolidin-3-yl)-7-(tetrahydro-2H-pyran-4-yl)imidazo[5,1-f][1,2,4]triazin-4(3H)-one]
257	225	–	Cc1cc(F)ccc1-c1ncc2c(=O)[nH]c(C3CN(Cc4ccccc4)CC3C)nn12 (single isomer, unassigned; (+)) [(+)-2-((3,4-trans)-1-benzyl-4-methylpyrrolidin-3-yl)-7-(4-fluoro-2-methylphenyl)imidazo[5,1-f][1,2,4]triazin-4(3H)-one]
177	232	–	CC(=O)N1CCC(c2ncc3c(=O)[nH]c(C4CN(Cc5ccccc5)CC4C)nn23)CC1 (single isomer, unassigned; (+)) [(+)-7-(1-acetylpiperidin-4-yl)-2-((3,4-trans)-1-benzyl-4-methylpyrrolidin-3-yl)imidazo[5,1-f][1,2,4]triazin-4(3H)-one]
973	1360	–	CC1CN(Cc2ncc3ccccc3n2)CC1c1nn2c(C3CCOCC3)ncc2c(=O)[nH]1 (single isomer, unassigned; (+)) [(+)-2-((3,4-trans)-4-methyl-1-(quinazolin-2-ylmethyl)pyrroli] [(+)-2-((3,4-trans)-4-methyl-1-(quinazolin-2-ylmethyl)pyrrolidin-3-yl)-7-(tetrahydro-2H-pyran-4-yl)imidazo[5,1-f][1,2,4]triazin-4(3H)-one]
51	99	–	CC1CN(C(C)c2ccccc2)CC1c1nn2c(C3CCOCC3)ncc2c(=O)[nH]1 (single isomer, unassigned; (+)) [(+)-2-((3,4-trans)-4-methyl-1-((S)-1-phenylethyl)pyrrolidin-]
